Measured values: article PMC10153361, “Mechanism of imidazole inhibition of a GH1 β‐glucosidase” (FEBS Open Bio, 2023)

Columns and labels:
[1] = target: T1, Sfβgly (GH1 β-glucosidase from Spodoptera frugiperda) (Spodoptera frugiperda, UniProt O61594); test: initial-rate kinetics, Lineweaver-Burk and secondary plots, p-nitrophenolate release; format: biochemical
T1 construct: recombinant, E. coli BL21(DE3), vector pET46, Ni-NTA purified; secreted digestive midgut enzyme; catalytic residues E187 and E399
Excerpt: initial-rate kinetics, Lineweaver-Burk and secondary plots, p-nitrophenolate release on Sfβgly (GH1 β-glucosidase from Spodoptera frugiperda)

[2] = target: T1, Sfβgly (GH1 β-glucosidase from Spodoptera frugiperda); test: initial-rate kinetics, Lineweaver-Burk plots, p-nitrophenolate release; format: biochemical; conditions: competitive; also a substrate; substrate p-nitrophenyl β-glucoside; 100 mM phosphate pH 6.0, 30 °C

T1 sequence (O61594 21-509): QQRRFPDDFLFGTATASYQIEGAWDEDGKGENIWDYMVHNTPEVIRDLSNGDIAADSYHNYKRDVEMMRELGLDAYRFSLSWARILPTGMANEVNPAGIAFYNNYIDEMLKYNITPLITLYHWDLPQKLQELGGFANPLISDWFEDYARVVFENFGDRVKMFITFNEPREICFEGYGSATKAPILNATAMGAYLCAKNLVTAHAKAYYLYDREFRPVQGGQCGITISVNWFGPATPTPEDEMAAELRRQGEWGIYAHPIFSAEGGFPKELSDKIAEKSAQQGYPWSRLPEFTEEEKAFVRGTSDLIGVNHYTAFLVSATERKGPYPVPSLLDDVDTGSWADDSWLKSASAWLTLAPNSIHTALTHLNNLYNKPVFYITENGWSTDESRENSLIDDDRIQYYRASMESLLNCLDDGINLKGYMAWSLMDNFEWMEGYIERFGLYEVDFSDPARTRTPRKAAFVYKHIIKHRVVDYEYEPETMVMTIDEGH

| Compound | Ki [1] [mM] | Ki [2] [mM] |
| --- | --- | --- |
| c1c[nH]cn1 [imidazole] | 15.3 ± 0.3 | – |
| OC[C@H]1O[C@@H](O[C@H]2[C@H](O)[C@@H](O)C(O)O[C@@H]2CO)[C@H](O)[C@@H](O)[C@@H]1O (some centres unmarked) [C2, cellobiose] | – | 10 |
